Experimental data from publication PMC9855884, “Glycosylated Lipopeptides—Synthesis and Evaluation of Antimicrobial Activity and Cytotoxicity” (Biomolecules, 2023).
Converted amounts (≈) assume the structure as drawn. Where a SMILES comes first, the peptide text is derived from it. The star is where a group is joined. βGlcNAc = CC(=O)N[C@@H]1[C@@H](O)[C@H](O)[C@@H](CO)O[C@H]1*; Stearoyl = CCCCCCCCCCCCCCCCCC(=O)*; Palmitoyl = CCCCCCCCCCCCCCCC(=O)*; Myristoyl = CCCCCCCCCCCCCC(=O)*

What was measured:
[1] = test system: K. pneumoniae ATCC 700603; format: cell-based, Klebsiella pneumoniae; conditions: ATCC 700603, 18 h
Experimental: (§1) The Acinetobacter baumannii ATCC BAA-1605, Enterococcus faecium ATCC 700221, Klebsiella aerogenes ATCC 13048, Klebsiella pneumoniae ATCC 700603, Pseudomonas aeruginosa ATCC 9027, Staphylococcus aureus ATCC 33591, Candida glabrata ATCC 15126, strains were acquired from the American Type Culture Collection (ATCC). All the strains were stored at −80 °C in Roti-Store cryo vials and were transferred into fresh Mueller–Hinton broth (MHB, Becton Dickinson, Warsaw, Poland) for bacteria or RPMI-1640 (Sigma-Aldrich, Steinheim, Germany) for fungi before the tests and incubated for 24 h at 37 °C. Then, the cultures were seeded on the Mueller–Hinton agar (BioMaxima, Lublin, Poland) or Sabouraud dextrose agar (SDA, BioMaxima, Lublin, Poland) plates, respectively, and incubated as just mentioned. These agar cultures were used for further microbiological assays. Cell densities for all assays were adjusted spectrophotometrically (Multiskan GO Microplate Spectrophotometer, Thermo Fisher Scientific, Vantaa, Finland) at 600 and 530 nm for bacteria and fungi, respectively.
(§2) The MICs were determined using a broth microdilution method according to the Clinical and Laboratory Standard Institute guidelines. For this purpose, initial inoculums of bacteria (5 × 10^5 CFU/mL) in MHB and yeasts (2 × 10^3 CFU/mL) in RPMI-1640 with 2% D-glucose were exposed to the ranging concentration of lipopeptides (1–512 μg/mL) and incubated at 37 °C for 18 h and 24 h, respectively. The experiments were conducted on 96-well microtiter polystyrene plates (Kartell, Italy). The growth was assessed visually after incubation and the MIC was assumed as the lowest peptide concentration at which a noticeable growth of microorganisms was inhibited. All experiments were conducted in triplicate.

S. aureus ATCC 33591 = format: cell-based, Staphylococcus aureus; conditions: ATCC 33591, 18 h
Experimental: as §1, §2

E. faecium ATCC 700221 = format: cell-based, Enterococcus faecium; conditions: ATCC 700221, 18 h
Experimental: as §1, §2

[2] = test system: human red blood cells (RBCs); test: Hemolysis assay; format: cell-based; conditions: human RBCs 4% (v/v) in PBS, 60 min, 37 °C, absorbance 540 nm, 1–512 µg/mL; triplicate
Experimental: The hemolysis assay was conducted using a procedure described previously. For this purpose, fresh human red blood cells (RBCs) with EDTA anticoagulant were washed three times with phosphate-buffer saline (PBS) using centrifugation at 800× g for 10 min and resuspended in PBS. Then, the stock solution of RBCs was added to serial dilution of peptides on 96-well polystyrene plates to reach a final volume of 100 µL with 4% concentration of erythrocytes (v/v) over the concentration range of 1–512 µg/mL of the tested compounds. The control wells for the 0% and 100% hemolysis consisted of RBCs suspended in PBS and 1% of Triton X–100, respectively. Subsequently, the plates were incubated for 60 min at 37 °C and then centrifuged at 800× g for 10 min at 4 °C (Sorvall ST 16R Centrifuge, Thermo Scientific, Osterode am Harz, Germany). After centrifugation, the supernatant was carefully […] to new microtiter plates and the release of hemoglobin was monitored through absorbance measurements at 540 nm (Multiskan™ GO Microplate Spectrophotometer, Thermo Scientific). All experiments were conducted in triplicate.
The lipopeptides were tested against human erythrocytes in order to evaluate their hemolytic activity. Moreover, selectivity indexes (SI) were calculated by dividing the HC50 by MIC. […] In some cases, glycosylation led to suppressed toxicity, e.g., a comparison of C14 peptides analogs: 1–3 and 10–12. On the other hand, an increase in toxicity of C18 analogs (7–9 vs. 16–18) was found for glycosylated USCLs. For this reason, SI was calculated to provide a correlation between antimicrobial activity and toxicity. […] Among gUSCLs: 10 and 11 with C14 fatty acid and 16–18 should be highlighted owing to their high selectivity against E. fecium and C. glabrata.

[3] = Determination of peptide hydrophobicity with RP-HPLC (adjusted retention time); format: physicochemical; conditions: RP-HPLC as measure of hydrophobicity; Waters X-Bridge Shield RP-18 3.0 × 100 mm, 3.5 μm; linear 20–80% acetonitrile in water over 30 min, 0.1% TFA; 0.5 mL/min; 25.0 °C; peptide 1 g/L in water (0.1% TFA); UV 214 nm; triplicate
Experimental: To determine peptide hydrophobicity, a Waters Alliance e2695 system with a Waters 2998 PDA Detector was used. All analyses were carried out on a Waters X-Bridge Shield RP-18 column (3.0 × 100 mm, 3.5 μm particle size, 130 Å pore size). The peptides were dissolved in water (0.1% TFA, v/v) up to a concentration of 1 g/L. UV detection at 214 nm was used, and samples (10 μL) were eluted with a linear 20–80% acetonitrile gradient in deionized water over 30 min at 25.0 ± 0.1 °C. The mobile phase flow rate was 0.5 mL/min. Both eluents contained 0.1% (v/v) of TFA. Each peptide sample was analyzed in triplicate. Maximum standard deviation and coefficient of variation were 0.046 and 0.23%, respectively.
After synthesis and purification, all the products were analyzed with MS and HPLC to confirm purity and identity of the compounds. […] The chromatographic analyses were performed with RP-HPLC; retention time refers to hydrophobicity of the lipopeptide.

P. aeruginosa biofilm = format: cell-based, Pseudomonas aeruginosa; conditions: 24 h
Experimental: as §1
(§3) The MBECs were determined as previously described, using 96-well polystyrene flat-bottom plates. For this purpose, 24 h cultures of microorganisms were diluted to obtain a final density of 5.0 × 10^5 CFU/mL and 2.0 × 10^5 CFU/mL of bacteria and fungi, respectively. Microorganisms were diluted in MHB or RPMI-1640 with 2% D-glucose (bacteria and fungi, respectively). Briefly, 100 µL of cell suspension was added into the test plates. After 24 h of incubation at 37 °C, the wells were rinsed three times with a phosphate buffer saline (PBS, pH 7.4) to remove non-adherent cells. Subsequently, 100 μL of the test compounds over the concentration range (1–512 μg/mL) were added to each well. After 24 h of incubation at 37 °C, 20 μL of a cell viability reagent was added (resazurin, 4 g/L; Sigma Aldrich, St. Louis, MO, USA). The MBEC was read after 1 h. The determined values were recorded as the lowest concentration at which the reduction of resazurin (from blue to pink) […]. All experiments were conducted in triplicate.

C. glabrata biofilm = format: cell-based, Candida glabrata; conditions: 24 h
Experimental: as §1, §3

A. baumannii biofilm = format: cell-based, Acinetobacter baumannii; conditions: 24 h
Experimental: as §1, §3

S. aureus biofilm = format: cell-based, Staphylococcus aureus; conditions: 24 h
Experimental: as §1, §3

| MIC [1] [µg/mL] | MIC (S. aureus ATCC 33591) [µg/mL] | MIC (E. faecium ATCC 700221) [µg/mL] | Adjusted Retention Time [3] [min] | Compound | HC50 (hemolytic activity) [2] [µg/mL] | MBEC (P. aeruginosa biofilm) [µg/mL] | MBEC (C. glabrata biofilm) [µg/mL] | MBEC (A. baumannii biofilm) [µg/mL] | MBEC (S. aureus biofilm) [µg/mL] |
| --- | --- | --- | --- | --- | --- | --- | --- | --- | --- |
| >512 | 32 (≈ 38.6 µM) | 16 (≈ 19.3 µM) | 15.01 | CCCCCCCCCCCCCC(=O)N[C@@H](CCCNC(=N)N)C(=O)N[C@@H](CCCNC(=N)N)C(=O)N[C@@H](CO[C@@H]1O[C@H](CO)[C@@H](O)[C@H](O)[C@H]1NC(C)=O)C(N)=O [Peptide 12, C14-RRS(GlcNAc)-NH2] (Myristoyl-Arg-Arg-Ser(βGlcNAc)-NH2) | 345.72 ± 51.94 | – | – | – | – |
| 32 (≈ 48.9 µM) | 8 (≈ 12.2 µM) | 8 (≈ 12.2 µM) | 19.89 | CCCCCCCCCCCCCCCC(=O)N[C@@H](CCCNC(=N)N)C(=O)N[C@@H](CCCNC(=N)N)C(=O)N[C@@H](CO)C(N)=O [Peptide 6, C16-RRS-NH2] (Palmitoyl-Arg-Arg-Ser-NH2) | 75.95 ± 1.57 | – | – | – | – |
| 32 (≈ 36.1 µM) | 16 (≈ 18.1 µM) | 8 (≈ 9.03 µM) | 22.67 | CCCCCCCCCCCCCCCCCC(=O)N[C@@H](CCCNC(=N)N)C(=O)N[C@@H](CCCNC(=N)N)C(=O)N[C@@H](CO[C@@H]1O[C@H](CO)[C@@H](O)[C@H](O)[C@H]1NC(C)=O)C(N)=O [Peptide 18, C18-RRS(GlcNAc)-NH2] (Stearoyl-Arg-Arg-Ser(βGlcNAc)-NH2) | 48.04 ± 2.45 | 512 | 128 | 256 | 128 |
| 128 (≈ 149 µM) | 16 (≈ 18.6 µM) | 16 (≈ 18.6 µM) | 18.63 | CCCCCCCCCCCCCCCC(=O)N[C@@H](CCCNC(=N)N)C(=O)N[C@@H](CO[C@@H]1O[C@H](CO)[C@@H](O)[C@H](O)[C@H]1NC(C)=O)C(=O)N[C@@H](CCCNC(=N)N)C(N)=O [Peptide 14, C16-RS(GlcNAc)R-NH2] (Palmitoyl-Arg-Ser(βGlcNAc)-Arg-NH2) | 73.34 ± 1.63 | – | – | – | – |
| 256 (≈ 298 µM) | 16 (≈ 18.6 µM) | 8 (≈ 9.32 µM) | 18.80 | CCCCCCCCCCCCCCCC(=O)N[C@@H](CCCNC(=N)N)C(=O)N[C@@H](CCCNC(=N)N)C(=O)N[C@@H](CO[C@@H]1O[C@H](CO)[C@@H](O)[C@H](O)[C@H]1NC(C)=O)C(N)=O [Peptide 15, C16-RRS(GlcNAc)-NH2] (Palmitoyl-Arg-Arg-Ser(βGlcNAc)-NH2) | 111.45 ± 11.65 | – | – | – | – |
| 256 (≈ 298 µM) | 16 (≈ 18.6 µM) | 16 (≈ 18.6 µM) | 18.26 | CCCCCCCCCCCCCCCC(=O)N[C@@H](CO[C@@H]1O[C@H](CO)[C@@H](O)[C@H](O)[C@H]1NC(C)=O)C(=O)N[C@@H](CCCNC(=N)N)C(=O)N[C@@H](CCCNC(=N)N)C(N)=O [Peptide 13, C16-S(GlcNAc)RR-NH2] (Palmitoyl-Ser(βGlcNAc)-Arg-Arg-NH2) | 95.39 ± 2.40 | – | – | – | – |
| >512 | 64 (≈ 77.1 µM) | 32 (≈ 38.6 µM) | 14.82 | CCCCCCCCCCCCCC(=O)N[C@@H](CCCNC(=N)N)C(=O)N[C@@H](CO[C@@H]1O[C@H](CO)[C@@H](O)[C@H](O)[C@H]1NC(C)=O)C(=O)N[C@@H](CCCNC(=N)N)C(N)=O [Peptide 11, C14-RS(GlcNAc)R-NH2] (Myristoyl-Arg-Ser(βGlcNAc)-Arg-NH2) | 364.17 ± 105.10 | – | – | – | – |
| 512 (≈ 817 µM) | 8 (≈ 12.8 µM) | 8 (≈ 12.8 µM) | 15.96 | CCCCCCCCCCCCCC(=O)N[C@@H](CCCNC(=N)N)C(=O)N[C@@H](CO)C(=O)N[C@@H](CCCNC(=N)N)C(N)=O [Peptide 2, C14-RSR-NH2] (Myristoyl-Arg-Ser-Arg-NH2) | 186.64 ± 2.14 | – | – | – | – |
| 512 (≈ 782 µM) | 8 (≈ 12.2 µM) | 8 (≈ 12.2 µM) | 20.55 | CCCCCCCCCCCCCCCC(=O)N[C@@H](CO)C(=O)N[C@@H](CCCNC(=N)N)C(=O)N[C@@H](CCCNC(=N)N)C(N)=O [Peptide 4, C16-SRR-NH2] (Palmitoyl-Ser-Arg-Arg-NH2) | 75.46 ± 0.73 | – | – | – | – |
| >512 | 64 (≈ 77.1 µM) | 32 (≈ 38.6 µM) | 14.47 | CCCCCCCCCCCCCC(=O)N[C@@H](CO[C@@H]1O[C@H](CO)[C@@H](O)[C@H](O)[C@H]1NC(C)=O)C(=O)N[C@@H](CCCNC(=N)N)C(=O)N[C@@H](CCCNC(=N)N)C(N)=O [Peptide 10, C14-S(GlcNAc)RR-NH2] (Myristoyl-Ser(βGlcNAc)-Arg-Arg-NH2) | >512 | – | – | – | – |
| 64 (≈ 97.7 µM) | 8 (≈ 12.2 µM) | 8 (≈ 12.2 µM) | 19.93 | CCCCCCCCCCCCCCCC(=O)N[C@@H](CCCNC(=N)N)C(=O)N[C@@H](CO)C(=O)N[C@@H](CCCNC(=N)N)C(N)=O [Peptide 5, C16-RSR-NH2] (Palmitoyl-Arg-Ser-Arg-NH2) | 82.21 ± 2.07 | – | – | – | – |
| 512 (≈ 817 µM) | 16 (≈ 25.5 µM) | 8 (≈ 12.8 µM) | 15.91 | CCCCCCCCCCCCCC(=O)N[C@@H](CCCNC(=N)N)C(=O)N[C@@H](CCCNC(=N)N)C(=O)N[C@@H](CO)C(N)=O [Peptide 3, C14-RRS-NH2] (Myristoyl-Arg-Arg-Ser-NH2) | 227.01 ± 5.69 | – | – | – | – |
